Earlier results as cited in US12396980B2, “Melatonin for preventing and treating radiation cystitis” (RepoCeuticals A/S, priority 2015, dated 2025).

Assays:
rat urinary bladder = conditions: intraperitoneal
lymphocytes = conditions: prior oral dosage; human beings
radiation cystitis = conditions: human patients

COC1=C(OC)C(=O)C(C/C=C(\C)CC/C=C(\C)CC/C=C(\C)CC/C=C(\C)CC/C=C(\C)CC/C=C(\C)CC/C=C(\C)CC/C=C(\C)CC/C=C(\C)CCC=C(C)C)=C(C)C1=O [coenzyme Q10]
water solubility: almost water-insoluble

COc1ccc2[nH]cc(CCNC(C)=O)c2c1 [melatonin, /V-acetyl-5-methoxytryptamine]
protective effect against radiation-induced oxidative changes to the rat urinary bladder (rat urinary bladder): protective effect
protective effect on the damage caused by subsequent ex vivo radiation exposure of lymphocytes (lymphocytes): protective effect

C[S+](C)[O-] [DMSO, Dimethyl sulfoxide]
therapeutic effect on radiation cystitis (radiation cystitis): some therapeutic effect
